Consider 8 molecules from article PMC6421079 (European neuropsychopharmacology : the journal of the …, 2018).

One series concerns δ-ORs. The settings on record: ref Chiang et al., 2016; Molinari et al., 2010; cited from earlier work.
For series [1] the following is noted: cited from earlier work.
The target of another series is δ-OR (Homo sapiens, UniProt P41143). Nature of the series: Radioligand binding assay: displacement of [^3H]DPDPE.
For another series, the target named is humanδ-OR / β-arrestin 2 (Homo sapiens, UniProt P41143). Description: β-arrestin 2 recruitment, CHO-humanδ-OR PathHunter cells. Type of series: cell-based. To be noted: for efficacy α β-arrestin2: normalized to leu-enkephalin, mean ± SEM. Background: Activated receptors often draw arrestin, which recruitment assays turn into a signal.
humanδ-OR / β-arrestin 2, sequence (P41143 whole entry): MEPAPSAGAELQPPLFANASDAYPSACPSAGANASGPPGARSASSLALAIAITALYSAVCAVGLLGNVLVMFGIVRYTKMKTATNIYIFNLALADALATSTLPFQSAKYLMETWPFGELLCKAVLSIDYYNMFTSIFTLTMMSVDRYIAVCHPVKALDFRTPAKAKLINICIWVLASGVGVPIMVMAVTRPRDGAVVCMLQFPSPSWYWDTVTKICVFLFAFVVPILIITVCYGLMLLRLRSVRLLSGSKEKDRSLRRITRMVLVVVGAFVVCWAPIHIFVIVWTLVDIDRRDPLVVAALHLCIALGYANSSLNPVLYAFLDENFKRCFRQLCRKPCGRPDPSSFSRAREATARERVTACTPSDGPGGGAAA
For series [2] the following is noted: ref Groer et al., 2007; cited from earlier work.
The test system of series [3] is δ opioid receptors (δ-ORs). To be noted: synthetic analog of rubiscolin-6; ref Yang et al., 2003b; cited from earlier work.

Read-outs that look alike come from different tables or passages of the source. Where no end group is shown, it is not given here.

δ-OR, sequence (P41143 whole entry): as above

As for DADLE, the “β-arrestin recruitment, in words” value with δ-ORs is reported as “strongly recruit β-arrestin”.
With `COc1ccsc1CNCC[C@@]1(c2ccccn2)CCOC2(CCCC2)C1` [TRV130], the side effect profile entry in series [1] (ref DeWire et al., 2013) is recorded as “appear to possess a reduced side effect profile”.
The Ki is a measure of affinity in units of concentration, obtained from inhibition or displacement. Read a high Ki as lower affinity. By EC50 is commonly meant the concentration needed to bring the measured effect to its halfway point. In turn, YPLDLF [Rubiscolin-6] gave a Ki on δ-OR of 1 µM. Also, at humanδ-OR / β-arrestin 2, the EC50 is 7.94 µM and the “efficacy α β-arrestin2” value turned out to be 20±3.
For `COC(=O)[C@@H]1C[C@H](OC(=O)c2ccccc2)C(=O)[C@H]2[C@@]1(C)CC[C@H]1C(=O)O[C@H](c3ccoc3)C[C@]21C` [herkinorin], the “G protein bias, in words” value in series [2] is reported as “G protein-biased”.
As to DPDPE, the “β-arrestin recruitment, in words” value in the series with δ-ORs was “strongly recruit β-arrestin”.
On δ-OR, YPLDL [Rubiscolin-5] gave a Ki of 3.16 µM. Besides, on humanδ-OR / β-arrestin 2, it took 79.4 µM to reach a half-maximal effect (EC50) and the “efficacy α β-arrestin2” value is 15±4.
As for YPLDLV, the “potency and δ-OR selectivity, in words” value in series [3] is “more potent and δ-OR-selective”.
As for `C[C@@H](Cc1ccsc1)NC(=O)NC[C@H](Cc1ccc(O)cc1)N(C)C` [PZM21], the side effect profile entry in series [1] (ref Manglik et al., 2016) is “appear to possess a reduced side effect profile”.
